From patent publication US20240122923A1, “METHODS OF TREATING HIDRADENITIS SUPPURATIVA” (AbbVie Inc., priority 2022, published 2024)

Tests used:
Assay type in all cases: in vivo
[1] = test system: adult human subjects with moderate to severe Hidradenitis Suppurativa (HS); experiment: Phase 2 randomized, double-blind, placebo-controlled study of upadacitinib, efficacy incl. post-hoc analysis through week 40; conditions: UPA 30 mg QD; N=47; flare = AN count increase ≥25% with minimum increase of 2
[2] = test system: adult human subjects with moderate to severe Hidradenitis Suppurativa (HS); experiment: Phase 2 study of upadacitinib in HS, safety (TEAEs, discontinuation due to adverse event)
Excerpt: (§1) This study was a Phase 2, multicenter, randomized, double-blind, parallel-group, placebo-controlled study to evaluate the efficacy and safety of upadacitinib in adult human subjects with moderate to severe Hidradenitis Suppurativa (HS).
(§2) The duration of the study was 57 weeks, including an approximately 35-day screening period followed by a 48-week double-blinded treatment period and a 30-day follow-up visit after the last dose of study drug. Subjects were randomized in a 2:1 ratio to 1 of the 2 arms as shown below: • Upadacitinib 30 mg once daily (QD) (N=40): Daily oral doses of upadacitinib 30 mg from the Baseline visit through Period 1 and Period 2. • Placebo (N=20): Placebo for upadacitinib from the Baseline visit up to the Week 12 visit (Period 1). At Week 12, subjects were switched to blinded upadacitinib 15 mg QD through Period 2.
Treatment-emergent adverse events (TEAEs), adverse events of interests (AESIs), and potentially clinically important (PCI) laboratory changes were monitored in Period 1.

[3] = test system: adult human subjects with moderate to severe Hidradenitis Suppurativa (HS); experiment: Phase 2 randomized, double-blind, placebo-controlled study of upadacitinib, efficacy incl. post-hoc analysis through week 40; conditions: for Pain NRS30 at Week 12, UPA - PBO Diff: UPA 30 mg vs historical PBO rate 22.5%, p=0.028; for HiSCR at Week 12, UPA - PBO Diff: UPA 30 mg vs historical PBO rate 25%, 1-sided p=0.018; for HiSCR at Week 12, UPA - PBO Diff / HiSCR at Week 12, UPA - PBO Diff (adjusted difference): NRI-C; for HiSCR at Week 12, % (N), stratum TNF-IR / HiSCR at Week 12, % (N), stratum Hurley Stage (III) / HiSCR at Week 12, % (N), stratum Hurley Stage (<III) / HiSCR at Week 12, % (N), stratum TNF-Naïve / HiSCR at Week 12, % (N), Overall: UPA 30 mg, MI; for HiSCR at Week 12, % (N), stratum TNF-IR: N=12; for HiSCR at Week 12, % (N), stratum Hurley Stage (III): N=23; for HiSCR at Week 12, % (N), stratum Hurley Stage (<III): N=24; for HiSCR at Week 12, % (N), stratum TNF-Naïve: N=35; for HiSCR at Week 12, % (N), Overall: N=47
Excerpt: as §1, §2
The primary objective of this study was to assess the efficacy and safety of upadacitinib 30 mg QD in adult subjects with moderate to severe HS. The primary efficacy objective was assessed based on the achievement of HiSCR after 12 weeks treatment.
The primary endpoint was Hidradenitis Suppurativa Clinical Response (HiSCR) at Week 12, where HiSCR is defined as at least 50% reduction in the total abscess and inflammatory nodule (AN) count with no increase in abscess count and no increase in draining fistula count relative to Baseline.
The secondary endpoint was Pain Numerical Rating Scale (NRS30) at Week 12: the achievement of at least 30% reduction and at least 1 unit reduction from Baseline in NRS30 in Patient's Global Assessment of Skin Pain (PGA Skin Pain) at Week 12, among subjects with Baseline NRS≥3.
The following additional efficacy endpoints were evaluated: • 1. Experience of flare, defined as an increase in AN count of at least 25% with a minimum increase of 2 relative to Baseline • 2. Change from Baseline in Dermatology Life Quality Index (DLQI) • 3. Change from baseline in Hidradenitis Suppurativa Symptom Assessment (HSSA) • 4. Change from baseline in HS-related swelling, assessed based on the HSSA • 5. Change from baseline in HS-related odor, assessed based on the HSSA • 6. Change from baseline in HS-related worst drainage, assessed based on the HSSA
For the primary and secondary endpoints, comparisons of upadacitinib vs. placebo were made with 3 different analysis strategies, as summarized in Table 1 below:
For the additional endpoints, comparisons were made for upadacitinib vs. historical reference value of placebo, and upadacitinib vs. in-trial placebo subjects.
For categorical variables, the primary approach to handle missing data was Non-Responder Imputation [NRI] incorporating Multiple Imputation [MI]. For continuous variables, missing data was handled by Mixed-effect Model Repeat Measurement (MMRM). Missing data for long-term efficacy in Period 2 were handled based on the observed case (OC).
A post-hoc efficacy assessment through week 40 was performed in the study of Example 1. The analysis included the proportion of patients achieving ≥75% and ≥90% reduction from baseline in AN count with no increase in abscess or draining fistula count (HiSCR 75 and HiSCR 90, respectively) and the proportion of patients achieving ≥55% reduction in International HS Severity Score System endpoint (IHS4-55), which dynamically assesses inflammatory nodules, abscesses, and draining tunnels.

[4] = UPA 30 mg vs in-trial PBO, p=0.086
[5] = analysis vs synthetic + in-trial PBO

CC[C@@H]1CN(C(=O)NCC(F)(F)F)C[C@@H]1c1cnc2cnc3[nH]ccc3n12 [upadacitinib]
Flare during Period 1, n (%) [1]: 6 (12.8%) | most frequently reported TEAE (≥5%) ([2]; Period 1, upadacitinib 30 mg QD group): headache, dizziness, and urinary tract infection | Discontinued Study Drug during Period 2 (primary reason): Adverse event, n (%) ([2]; Placebo/UPA 15 mg, N=19): 0 | Discontinued Study Drug during Period 1: Adverse Event, n (%) ([2]; UPA 30 mg, N=47): (2.1) % | Discontinued Study Drug during Period 2 (primary reason): Adverse event, n (%) ([2]; UPA 30 mg, N=47): 0 | Pain NRS30 at Week 12, UPA - PBO Diff [3]: 13.9% | Pain NRS30 at Week 12, UPA - PBO Diff ([3]; listed as UPA): Diff = 13.9% | HiSCR at Week 12, UPA - PBO Diff [3]: 13.3% | HiSCR at Week 12, UPA - PBO Diff ([3]; listed as UPA): Diff = 13.3% | Flare during Period 1, UPA - PBO Diff ([3]; UPA 30 mg vs historical PBO rate 34%, p=0.001): Diff = −21.2 | Change in HSSA odor at Week 12, UPA - PBO Diff ([3]; UPA 30 mg vs historical reference value −0.72, p=0.072): Diff = −0.479 | Change in HSSA total symptom at Week 12, UPA - PBO Diff ([3]; UPA 30 mg vs historical reference value −0.72, p=0.188): Diff = −0.249 | Change in HSSA swelling at Week 12, UPA - PBO Diff ([3]; UPA 30 mg vs historical reference value −0.8, p=0.364): Diff = −0.131 | Change in HSSA worst drainage at Week 12, UPA - PBO Diff ([3]; UPA 30 mg vs historical reference value −0.89, p=0.219): Diff = −0.241 | Change in DLQI at Week 12, UPA - PBO Diff ([3]; UPA 30 mg vs historical reference value −2.5, p=0.548): Diff = 0.1 | Pain NRS30 at Week 12, UPA - PBO Diff (adjusted difference) ([3]; UPA 30 mg vs in-trial PBO (N=12), p=0.421): 2.2% | Pain NRS30 at Week 12, UPA - PBO Diff (adjusted difference) ([3]; UPA 30 mg vs in-trial PBO (N=12), p=0.421, listed as UPA): Diff = 2.2% | HiSCR at Week 12, UPA - PBO Diff (adjusted difference) ([3]; UPA 30 mg vs in-trial PBO (N=21), p=0.087): 14.7% | HiSCR at Week 12, UPA - PBO Diff (adjusted difference) ([3]; UPA 30 mg vs in-trial PBO (N=21), p=0.087, listed as UPA): Diff = 14.7% | Change in HSSA odor at Week 12, UPA - PBO Diff ([3]; UPA 30 mg vs in-trial PBO, p=0.024): Diff = −1.246 | Change in HSSA total symptom at Week 12, UPA - PBO Diff ([3]; UPA 30 mg vs in-trial PBO, p=0.046): Diff = −0.762 | Change in HSSA swelling at Week 12, UPA - PBO Diff [3, 4]: Diff = −0.795 | Change in HSSA worst drainage at Week 12, UPA - PBO Diff [3, 4]: Diff = −0.695 | Change in DLQI at Week 12, UPA - PBO Diff ([3]; UPA 30 mg vs in-trial PBO, p=0.222): Diff = −1.4 | Flare during Period 1, UPA - PBO Diff ([3]; UPA 30 mg vs in-trial PBO, p=0.231): Diff = −6.5 | Pain NRS30 at Week 12, UPA - PBO Diff (adjusted difference) ([3]; UPA 30 mg vs synthetic plus in-trial PBO (N=80), p=0.323): 4.5% (−14.6, 23.5) | Pain NRS30 at Week 12, UPA - PBO Diff (adjusted difference) ([3]; UPA 30 mg vs synthetic plus in-trial PBO (N=80), p=0.323, listed as UPA): Diff = 4.5% | HiSCR at Week 12, UPA - PBO Diff (adjusted difference) ([3]; UPA 30 mg vs synthetic plus in-trial PBO (N=89), p=0.142): 9.2% (−7.6, 25.9) | HiSCR at Week 12, UPA - PBO Diff (adjusted difference) ([3]; UPA 30 mg vs synthetic plus in-trial PBO (N=89), p=0.142, listed as UPA): Diff = 9.2% | HiSCR at Week 12, % (N), stratum TNF-IR ([3]; analysis vs in-trial PBO): 41.7% (N = 12) | HiSCR at Week 12, % (N), stratum Hurley Stage (III) ([3]; analysis vs in-trial PBO): 39.7% (N = 23) | HiSCR at Week 12, % (N), stratum Hurley Stage (<III) ([3]; analysis vs in-trial PBO): 38.1% (N = 24) | HiSCR at Week 12, % (N), stratum TNF-Naïve ([3]; analysis vs in-trial PBO): 37.9% (N = 35) | HiSCR at Week 12, % (N), Overall ([3]; analysis vs in-trial PBO): 38.9% (N = 47) | HiSCR at Week 12, % (N), stratum TNF-IR [3, 5]: 41.7% (N = 12) | HiSCR at Week 12, % (N), stratum Hurley Stage (III) [3, 5]: 40.3% (N = 23) | HiSCR at Week 12, % (N), stratum Hurley Stage (<III) [3, 5]: 39.0% (N = 24) | HiSCR at Week 12, % (N), stratum TNF-Naïve [3, 5]: 39.0% (N = 35) | HiSCR at Week 12, % (N), Overall [3, 5]: 39.6% (N = 47)
